Source: article PMC12406196, “Anticoronavirus Activity of Uridine Glycoconjugates Containing a 1,2,3-Triazole Moiety” (Journal of Medicinal Chemistry, 2025)
Entries after “also recorded” stand apart in the source; their conditions may differ. Where two headings read alike, the source gives them in different places.

Assays:
[1] = test system: murine hepatitis virus (MHV); set-up: method as in not printed at the place; conditions: tunicamycin treatment; ref not given; cited from earlier work
HCoV-NL63 RNA synthesis = test: HCoV-NL63 RNA level in infected LLC-Mk2 cells, RT-PCR; assay type: cell-based, human coronavirus NL63; conditions: MOI 0.01, 96 h p.i.
Description: LR7 or LLC-Mk2 were cultured in 12-well plate overnight. Next, LR7 cells were infected with MHV at an MOI value of 1 for 1 h or LLC-Mk2 cells were infected with HCoV-NL63 at an MOI value of 0.01 for 2 h. Following removal of unbound virus, cells were cultured with medium supplemented with different concentrations of selected compounds. 8 h p.i. (MHV) or 96 h p.i. (HCoV-NL63) cells were collected and total RNA was isolated by CoV RNA kit (A&A Biotechnology, Poland) according to the manufacturer’s instruction. To evaluate levels of viral RNA in infected cells Qiagen One-Step RT-PCR reaction was performed. Following reverse transcription, the PCR reaction was carried out using primers: F: […], R: […] for amplification of a fragment of HCoV-NL63 genome (position: 26418–26960 bp NC_005831.2) and F: […] and R: […] for amplification of a fragment of MHV genome (position: 30341–30902 bp FJ647225.1). For internal control fragment of β-actin mRNA was reverse transcribed and amplified using primers For: […] and Rev: […].

[2] = MTS-based cell viability assay in Vero cells; conditions: African green monkey, 96 h per table footnote, read-out: CC50 (SARS-CoV-2 block)
Description: (§1) LR7, LLC-Mk2 or Vero cells were seeded in 96-well plates and cultured overnight. Next, the medium was changed to a new one supplemented with different concentrations (in triplicate) of analyzed compounds. Following the 2 days (LR7 and Vero) or 4 days (LLC-Mk-2) of incubation, CellTiter 96 AQueous nonradioactive cell proliferation assay (Promega) was performed according to the manufacturer’s instruction. The half-maximal cytotoxic concentration (CC50) was calculated as the concentration of a compound needed to reduce cell viability by 50% using GraphPad Prism software (version 5.01, GraphPad Software, San Diego, CA).

[3] = test system: murine hepatitis virus strain A59 (MHV); test: Reduction of MHV cytopathic effect (CPE) in LR7 cells, MTS/PMS readout; assay type: cell-based
Description: LR7 cells were seeded in a 96-well plate and cultured overnight. Next, the cells were infected with MHV at an MOI value of 0.01 in medium without FBS. Following 1 h of incubation, the medium containing the virus was collected and cells were covered with a medium supplemented with different concentrations (in triplicate) of the analyzed compounds or DMSO. 24 h p.i. cells viability was evaluated by CellTiter 96 AQueous nonradioactive cell proliferation assay (Promega) according to the manufacturer’s instruction.

[4] = MTS-based cell viability assay in LR7 cells; set-up: species or system mouse; conditions: mouse, LR7 cells, 48 h, 0–100 μM, read-out: CC50 (MHV block)
Description: as §1

LR7 cells = test: MTS-based cell viability assay in LR7 cells; set-up: species or system mouse; conditions: 50 μM, uninfected LR7 cells
Description: as §1

[5] = MTS-based cell viability assay in LLC-Mk2 cells; conditions: Macaca mulatta, read-out: CC50 (HCoV-NL63 block)
Description: as §1

[6] = test system: human coronavirus strain NL63 (HCoV-NL63); test: HCoV-NL63 N protein expression in LLC-Mk2 cells, Western blot and densitometry; assay type: cell-based; conditions: 50 μM, MOI 0.01, 4 days p.i., Western blot/densitometry
Description: LLC-Mk2 monolayers grown in 24-well plates were infected with HCoV-NL63 at an MOI value of 0.01 for 2 h. Unbound virus was removed, and cells were cultured in medium supplemented with different concentrations of compounds. Four days postinfection, cells were collected and lysed in CellLyticM Cell Lysis Reagent (Sigma). Following the protein separation by SDS-PAGE and transfer to PVDF membranes, proteins were immunoblotted using specific mouse anti-N NL63 Abs (Eurofins, Spain) or rabbit anti-β-catenin Abs (Santa Cruz), followed by antimouse or antirabbit secondary antibodies conjugated with HRP. Proteins were visualized and analyzed by chemiluminescence using the UVITEC Cambridge Alliance MINI HD detection system. The densitometric analysis of cells treated with 50 μM dose of a panel of glycoconjugates was performed based on three biological replicates of N and β-catenin immunoblots. The N protein levels were expressed as a percentage relative to DMSO-treated infected cells, while β-catenin levels were expressed as a percentage relative to noninfected control cells. The data were presented as the ratio of N/β-catenin for each sample, normalized accordingly.

[7] = test system: murine hepatitis virus strain A59 (MHV); test: MHV titer in medium of infected LR7 cells, plaque assay; assay type: cell-based; conditions: Murine coronavirus, read-out: IC50 (MHV)
Description: LR7 or LLC-Mk2 cells were infected at a MOI of 0.01 with MHV and HCoV-NL63, respectively, and treated with selected compounds at a concentration ranging from 0 to 50 μM. Culture supernatants were collected 1 day (MHV) or 4 days (HCoV-NL63) after infection. Virus titer was determined by plaque assay.
(§2) The half-maximum inhibitory concentration value (IC50) indicating the concentration of compound needed to reduce virus titer by 50% in comparison to the control, was evaluated by GraphPad software (version 5.01, GraphPad Software, San Diego, CA).

[8] = test system: SC-VLP entry into HEK-hACE2 cells; test: SARS-CoV-2 VLP (SC-VLP) internalization assay in HEK-hACE2 cells, luciferase; assay type: cell-based; conditions: 12.5 μM during SC-VLP production
[9] = test system: human coronavirus strain NL63 (HCoV-NL63); test: HCoV-NL63 titer in medium of infected LLC-Mk2 cells, foci-forming assay; assay type: cell-based; conditions: for IC50: read-out: IC50 (HCoV-NL63)
Description: LR7 or LLC-Mk2 cells were infected at a MOI of 0.01 with MHV and HCoV-NL63, respectively, and treated with selected compounds at a concentration ranging from 0 to 50 μM. Culture supernatants were collected 1 day (MHV) or 4 days (HCoV-NL63) after infection. […]
as §2

SARS-CoV-2 = SARS-CoV-2 infectivity in supernatants of infected Vero cells, plaque assay; assay type: cell-based; conditions: Severe acute respiratory syndrome coronavirus 2, Vero, read-out: IC50 (SARS-CoV-2)
Description: Vero cells were seeded in appropriate plates and allowed to reach an approximately 90% confluence. For infection, 200 μL of viral suspension containing 10^5 pfu (SARS-CoV-2 strain SARS-CoV-2/human/Czech Republic/951/2020) was added to each well and incubated for 2 h at 37 °C to allow virus adsorption. After the incubation, the viral medium was removed, and the wells were washed gently with phosphate-buffered saline (PBS). Test compounds were prepared in serial dilutions to final concentrations of 50, 25, 12.5, 6.25, 3.125, and 0 μM in the medium (DMEM containing 2% FBS). The compounds were added in quadruplicate to the infected cells. The plates were then incubated for 48 h at 37 °C. Following the 48 h treatment period, the supernatants were removed, and plaque assays in Vero E6 cells were performed to assess viral titers. Cells were fixed and stained 4 days after infection to visualize plaques, as described previously.
as §2

[10] = set-up: method as in not printed at the place; conditions: clinical use; ref not given; cited from earlier work

tunicamycin
effect on MHV viral titers [1]: significantly reducing viral titers

CC(=O)OC[C@H]1O[C@@H](OCc2cn(C[C@H]3O[C@@H](n4ccc(=O)[nH]c4=O)[C@H](O[Si](C)(C)C(C)(C)C)[C@@H]3O[Si](C)(C)C(C)(C)C)nn2)[C@H](OC(C)=O)[C@@H](OC(C)=O)[C@H]1OC(C)=O [Compound 15, 2′,3′-di-O-tert-Butyldimethylsilyl-5′-deoxy-5′-[4-(2″,3″,4″,6″-tetra-O-acetyl-β-D-galactopyranosyloxymethyl)-1,2-3-triazol-1-yl]-uridine]
concentration that effectively suppressed HCoV-NL63 RNA synthesis (HCoV-NL63 RNA synthesis): 12.5 µM
CC50 at 96 h [2]: > 100 µM
protection against MHV-induced CPE ([3]; 50 μM, MOI 0.01, 24 h): significantly reduced cell death
concentration above which MHV-induced CPE was significantly reduced ([3]; MOI 0.01, 24 h p.i.): above 12.5 μM
CC50 at 48 h [4]: 134 µM
reduction of cell viability (cytotoxicity in uninfected cells) (LR7 cells): 10–30%
CC50 at 96 h [5]: 49.8 µM
HCoV-NL63 N protein level [6]: significantly reduced; also recorded: No N protein was detected
IC50 ([7]; LR7, 24 h): 7.6 µM
IC50 ([7]; LR7, supplementary CSV, decimal comma): 7.62 µM
reduction of SC-VLP entry compared with the control [8]: 80%
IC50 ([9]; LLC-MK2, 96 h): 6.8 µM
IC50 ([9]; LLC-MK2, supplementary CSV, decimal comma): 6.79 µM
antiviral efficacy against HCoV-NL63 compared with compound 24 ([9]; dose-response 0–25 μM, LLC-Mk2 cells): slightly lower activity
IC50 (SARS-CoV-2; 48 h): ~27.4 µM
IC50 (SARS-CoV-2; supplementary CSV, decimal comma): 27.4 µM

CCCCN1C[C@H](O)[C@@H](O)[C@H](O)[C@H]1CO [miglustat]
adverse effects in humans [10]: diarrhea, weight loss, and flatulence

CCCC(=O)O[C@H]1CN2CC[C@H](O)[C@@H]2[C@@H](O)[C@@H]1O [celgosivir]
adverse effects in humans [10]: diarrhea, weight loss, and flatulence
